Source: patent US11180487B2, “Substituted cyanoindoline derivatives as NIK inhibitors” (Janssen Pharmaceutica NV, priority 2016, dated 2021)

Columns and labels:
[1] = target: recombinant human NF-kappaB-inducing kinase (NIK/MAP3K14) (Homo sapiens, UniProt Q99558); assay: Inhibition of auto-phosphorylation of recombinant human NIK/MAP3K14 activity (AlphaScreen), Biological Assay A; assay type: biochemical; conditions: averaged values over all measurements on all batches
Method: Inhibition of Auto-Phosphorylation of Recombinant Human NF-kappaB-Inducing Kinase (NIK/MAP3K14) Activity (AlphaScreen®)
NIK/MAP3K14 auto-phosphorylation activity was measured using the AlphaScreen® (αscreen) format (Perkin Elmer). All compounds tested were dissolved in dimethyl sulfoxide (DMSO) and further dilutions were made in assay buffer. Final DMSO concentration was 1% (v/v) in assays. Assay buffer was 50 mM Tris pH 7.5 containing 1 mM EGTA (ethylene glycol tetraacetic acid), 1 mM DTT (dithiothreitol), 0.1 mM Na3VO4, 5 mM MgCl2, 0.01% Tween® 20. Assays were carried out in 384 well Alphaplates (Perkin Elmer). Incubations consisted of compound, 25 microM Adenosine-5′-triphosphate (ATP), and 0.2 nM NIK/MAP3K14. Incubations were initiated by addition of GST-tagged NIK/MAP3K14 enzyme, carried out for 1 h at 25° C. and terminated by addition of stop buffer containing anti-phospho-IKK Ser176/180 antibody. Protein A Acceptor and Glutathione-Donor beads were added before reading using an EnVision® Multilabel Plate Reader (Perkin Elmer). Signal obtained in the wells containing blank samples was subtracted from all other wells and IC50's were determined by fitting a sigmoidal curve to % inhibition of control versus Log10 compound concentration.

[2] = tested on: JJN-3 (NIK translocated) multiple myeloma cells; assay: Antiproliferative activity on JJN-3 multiple myeloma cells (CellTiter-Glo, 96 hr), Biological Assay C; assay type: cell-based, human; conditions: Homo sapiens, JJN-3, 96 h, JJN-3 (NIK translocated) cells, averaged values, read-out: JJN-3 Proliferation inhibition (IC50 (nM))
Method: (§1) Determination of Antiproliferative Activity on JJN-3 (NIK Translocated) and KMS12-BM (NIK WT) Multiple Myeloma Cells
(§2) All compounds tested were dissolved in DMSO and further dilutions were made in culture medium. Final DMSO concentration was 0.3% (v/v) in cell proliferation assays. Viability was assessed using CellTiter-Glo cell viability assay kit (Promega). The human JJN-3 and KMS12-BM cells (DSMZ) were cultured in RPMI 1640 medium supplemented with 2 mM L-glutamine, and 10% fetal calf serum (PAA). Cells were routinely kept as suspension cells at 37° C. in a humidified 5% CO2 atmosphere. Cells were passaged at a seeding density of 0.2×10^6/ml twice a week. Cells were seeded in black tissue culture treated 96-well plates (Perkin Elmer). Densities used for plating ranged from 15000 (JJN3) to 20000 (KMS12BM) cells per well in a total volume of 135 μl medium. Drugs and/or solvents were added (15 μl) to a final volume of 150 μl. Following 96 hr of treatment, plates were removed from the incubator and allowed to equilibrate to room temperature for approx 10 min. 75 μl CellTiter-Glo reagent was added to each well that was then covered (Perkin Elmer Topseal) and shaken on plate shaker for 10 min. Luminescence was measured on a HTS Topcount (Perkin Elmer).
(§3) Within an experiment, the results for each treatment were the mean of 2 replicate wells. For initial screening purposes, compounds were tested using a 9 point dilution curve (serial 1:3 dilutions). For each experiment, controls (containing no drug) and a blank incubation (containing cells read at the time of compound addition) were run in parallel. The blank value was subtracted from all control and sample values. For each sample, the mean value for cell growth (in relative light units) was expressed as a percentage of the mean value for cell growth of the control.

[3] = tested on: KMS12-BM (NIK WT) multiple myeloma cells; assay: Antiproliferative activity on KMS12-BM multiple myeloma cells (CellTiter-Glo, 96 hr), Biological Assay C; assay type: cell-based, human; conditions: Homo sapiens, KMS-12-BM, 96 h, averaged values, read-out: KMS-12 Proliferation inhibition (IC50 (nM))
Method: as §1, §2, §3

recombinant human NF-kappaB-inducing kinase (NIK/MAP3K14), sequence (Q99558 whole entry): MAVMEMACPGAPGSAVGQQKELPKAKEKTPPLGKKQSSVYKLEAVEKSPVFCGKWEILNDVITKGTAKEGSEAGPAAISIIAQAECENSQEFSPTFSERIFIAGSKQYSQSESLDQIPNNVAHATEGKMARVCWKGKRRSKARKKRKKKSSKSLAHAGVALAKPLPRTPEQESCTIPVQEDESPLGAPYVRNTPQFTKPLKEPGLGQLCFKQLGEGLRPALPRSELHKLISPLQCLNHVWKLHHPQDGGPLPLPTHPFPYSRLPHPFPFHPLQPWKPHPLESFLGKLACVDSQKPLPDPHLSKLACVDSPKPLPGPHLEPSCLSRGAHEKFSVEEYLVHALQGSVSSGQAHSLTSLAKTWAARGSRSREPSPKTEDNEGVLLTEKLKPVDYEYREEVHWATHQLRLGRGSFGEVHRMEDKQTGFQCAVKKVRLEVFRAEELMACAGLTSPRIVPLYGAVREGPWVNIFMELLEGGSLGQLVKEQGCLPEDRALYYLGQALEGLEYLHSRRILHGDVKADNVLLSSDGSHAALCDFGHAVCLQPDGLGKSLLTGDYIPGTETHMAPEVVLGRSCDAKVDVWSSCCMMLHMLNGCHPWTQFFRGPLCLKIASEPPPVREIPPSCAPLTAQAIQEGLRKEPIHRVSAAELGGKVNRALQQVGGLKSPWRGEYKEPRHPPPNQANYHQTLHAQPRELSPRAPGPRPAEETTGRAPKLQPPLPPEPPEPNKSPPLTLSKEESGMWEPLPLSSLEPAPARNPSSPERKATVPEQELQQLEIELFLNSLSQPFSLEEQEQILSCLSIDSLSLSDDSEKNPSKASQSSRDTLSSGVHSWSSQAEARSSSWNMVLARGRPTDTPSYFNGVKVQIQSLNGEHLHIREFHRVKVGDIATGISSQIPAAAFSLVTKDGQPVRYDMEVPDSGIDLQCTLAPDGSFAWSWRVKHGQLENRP

Structure (SMILES)	IC50 [1] [nM]	IC50 [2] [nM]	IC50 [3] [nM]	melting point [°C]
CC1(CO)CNc2c(C#N)cc(-c3ccnc(Nc4ccc(OC5CCOCC5)c(C(F)(F)F)c4)n3)cc21 (centres unmarked) [Compound 37]	37.2	17	4170	221
CC1(CO)CNc2c(C#N)cc(-c3ccnc(Nc4cc(C(F)(F)F)ccc4OCCO)n3)cc21 (centres unmarked) [Compound 38]	30.9	182	> 10000	190
CC1(CO)CNc2c(C#N)cc(-c3ccnc(Nc4cc(Cl)ccc4OCCO)n3)cc21 (centres unmarked) [Compound 40]	8.7	155	> 10000	236
CCN1CCC(c2ccc(Nc3nccc(-c4cc(C#N)c5c(c4)C(C)(CO)CN5)n3)cc2Cl)CC1 (centres unmarked) [Compound 41]	1.7	13	110	> 260
CC(C)c1ccc(COc2cccc(Nc3nccc(-c4cc(C#N)c5c(c4)C(C)(CO)CN5)n3)c2)cc1 (centres unmarked) [Compound 42]	309	4270	> 10000	183
CN1CCC(Oc2ccc(Nc3nccc(-c4cc(C#N)c5c(c4)C(C)(CO)CN5)n3)cc2C(F)(F)F)CC1 (centres unmarked) [Compound 43]	2.5	9	251	237
CNCCOc1ccc(Cl)cc1Nc1nccc(-c2cc(C#N)c3c(c2)C(C)(CO)CN3)n1 (centres unmarked) [Compound 44]	8.3	219	> 10000	168
COc1ccc(Cl)cc1Nc1ncc(F)c(-c2cc(C#N)c3c(c2)C(C)(CO)CN3)n1 (centres unmarked) [Compound 47]	15.1	776	> 10000	> 250
COc1ccc(Cl)cc1Nc1ncc(F)c(-c2cc(C#N)c3c(c2)[C@@](C)(CO)CN3)n1 [Compound 48]	8.9	447	> 10000	> 250
CC1(CO)CNc2c(C#N)cc(-c3ccnc(Nc4cc(Cl)ccc4C(F)(F)F)n3)cc21 (centres unmarked) [Compound 49]	24.6	1620	> 10000	172
CC1CN(Cc2ccc(Nc3nccc(-c4cc(C#N)c5c(c4)C(C)(CO)CN5)n3)cc2C(F)(F)F)CC(C)N1C (centres unmarked) [Compound 50]	3	9	102	190
Cc1cc(Br)c(Cl)cc1Nc1nccc(-c2cc(C#N)c3c(c2)C(C)(CO)CN3)n1 (centres unmarked) [Compound 51]	49	363	> 10000	200
CC1(CO)CNc2c(C#N)cc(-c3ccnc(Nc4cc(Cl)ccc4OC(F)(F)F)n3)cc21 (centres unmarked) [Compound 52]	41.7	676	> 10000	217
Cc1c(Nc2nccc(-c3cc(C#N)c4c(c3)C(C)(CO)CN4)n2)cc(Cl)cc1C(=O)N(C)C (centres unmarked) [Compound 53]	3.6	33	1260	245
CN(C)C(=O)Cc1ccc(Cl)cc1Nc1nccc(-c2cc(C#N)c3c(c2)C(C)(CO)CN3)n1 (centres unmarked) [Compound 54]	9.8	275	> 10000	154
CC(C)N1CCN(C(=O)Cc2ccc(Cl)cc2Nc2nccc(-c3cc(C#N)c4c(c3)C(C)(CO)CN4)n2)CC1 (centres unmarked) [Compound 55]	15.5	282	> 10000	135
CN(C)C(=O)c1ccc(Cl)cc1Nc1nccc(-c2cc(C#N)c3c(c2)C(C)(CO)CN3)n1 (centres unmarked) [Compound 56]	126	1740	> 10000	170
COCCOc1ccc(Cl)cc1Nc1nccc(-c2cc(C#N)c3c(c2)[C@](C)(CO)CN3)n1 [Compound 57]	50.1	> 10000	> 10000	188

Structure (SMILES)	IC50 [1] [nM]	IC50 [2] [nM]	IC50 [3] [nM]	melting point [°C]
Cc1c(Nc2nccc(-c3cc(C#N)c4c(c3)C(C)(CO)CN4)n2)cc(Cl)cc1C(=O)N1CCN(C)CC1 (centres unmarked) [Compound 58]	2.6	85	6760	183
CC(=O)Nc1cc(Cl)cc(Nc2nccc(-c3cc(C#N)c4c(c3)[C@@](C)(CO)CN4)n2)c1C [Compound 63]	1.7	7	~5010	262
COCCOc1cc(P(C)(C)=O)ccc1Nc1nccc(-c2cc(C#N)c3c(c2)[C@@](C)(CO)CN3)n1 [Compound 67]	4.3	~1700	> 10000	188
COCCOc1cc(F)ccc1Nc1nccc(-c2cc(C#N)c3c(c2)[C@@](C)(CO)CN3)n1 [Compound 69]	4.9	1020	> 10000	157
C[C@]1(CO)CNc2c(C#N)cc(-c3ccnc(Nc4cc(C#N)ccc4C(F)(F)F)n3)cc21 [Compound 70]	3.9	2190	> 10000	237
C[C@]1(CO)CNc2c(C#N)cc(-c3ccnc(Nc4cc(C#N)ccc4C4CC4)n3)cc21 [Compound 71]	7.2	148	> 10000	210
COCCCc1ccc(Cl)cc1Nc1nccc(-c2cc(C#N)c3c(c2)[C@@](C)(CO)CN3)n1 [Compound 72]	11	123	> 10000	189
Cc1cc(C2CCOCC2)c(C#N)cc1Nc1nccc(-c2cc(C#N)c3c(c2)[C@@](C)(CO)CN3)n1 [Compound 75]	3.6	105	~3310	228
CC1(C)CNc2c(C#N)cc(-c3ccnc(Nc4cc(Cl)ccc4OC4CCN(C5CC5)CC4)n3)cc21 [Compound 99]	219	380	8320	120
COCCOc1ccc(Cl)cc1Nc1nccc(-c2cc(C#N)c3c(c2)C(C)(C)CN3)n1 [Compound 100]	91.2	1410	> 10000	171
CN1CCCC(Oc2ccc(Cl)cc2Nc2nccc(-c3cc(C#N)c4c(c3)C(C)(C)CN4)n2)C1 (centres unmarked) [Compound 101]	49	447	1350	104
CC(C)Oc1ccc(Cl)cc1Nc1nccc(-c2cc(C#N)c3c(c2)C(C)(C)CN3)n1 [Compound 102]	403	3550	> 10000	112
CC1(C)CNc2c(C#N)cc(-c3ccnc(Nc4cc(Cl)ccc4OC4CCOCC4)n3)cc21 [Compound 103]	105	3720	> 10000	126
COc1cc(Nc2nccc(-c3cc(C#N)c4c(c3)C(C)(C)CN4)n2)c(F)c(OC)c1 [Compound 104]	12	2140	> 10000	176
CC1(C)CNc2c(C#N)cc(-c3ccnc(Nc4cc(Cl)ccc4OCCO)n3)cc21 [Compound 107]	41.7	1020	> 10000	176
CC1(C)CNc2c(C#N)cc(-c3ccnc(Nc4ccccc4C(=O)N4CCC(O)C4)n3)cc21 (centres unmarked) [Compound 111]	3550	3470	> 10000	219
COc1cc(C(=O)NCC(C)O)c(Cl)cc1Nc1nccc(-c2cc(C#N)c3c(c2)C(C)(C)CN3)n1 (centres unmarked) [Compound 112]	4.3	20	> 10000	> 260
